Data from patent publication US8691818B2, “Cyclic triazo and diazo sodium channel blockers” (University Of Greenwich, priority 2008, dated 2014).
Counter-ions that a name gives are not always drawn.

What was measured:
Sodium Channel, Site 2 = format: binding, Wistar Rat; settings: for IC50: read-out: [3H]BTX-B binding Extrapolated IC50
[1] = molecular target: T1, DiHydroFolate Reductase (DHFR) (Rattus norvegicus, UniProt Q920D2); assay: Inhibition of binding of [3H]methotrexate to rat liver homogenate supernatant; settings: 125 μM; read-out: [3H]mtx binding (% inhibition @ 125 μM)
T1 construct: from tissue; host or cells: rat liver homogenate supernatant
T1 sequence (Q920D2 1-187): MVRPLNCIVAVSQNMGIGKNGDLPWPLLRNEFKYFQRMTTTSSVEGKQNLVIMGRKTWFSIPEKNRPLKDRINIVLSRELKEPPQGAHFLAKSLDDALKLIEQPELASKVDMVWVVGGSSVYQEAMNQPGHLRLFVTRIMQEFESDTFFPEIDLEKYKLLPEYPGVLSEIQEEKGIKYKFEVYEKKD
Procedure, shortened: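 Displacement of [3H]methotrexate binding to rat liver homogenate supernatant, prepared at 4 °C in pH 6.0 phosphate buffer with 15 mM dithiothreitol. Values are mean±sem over the number of experiments shown.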

sodium channel = assay: [14C]guanidine flux: veratrine-evoked uptake of [14C]guanidine into rat forebrain synaptosomes (primary sodium channel assay); format: biochemical; settings: 30° for 2½ min
Procedure, shortened: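 Synaptosomal fraction from male Wistar rat forebrain (without cerebellum/medulla), 20-25 mg wet weight/ml. Veratrine-evoked [14C]guanidine uptake at 30° for 2½ min across a compound concentration range; IC50 from concentration-effect curves, mean±sem.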

hERG = hERG (Homo sapiens, UniProt Q12809); assay: hERG: inhibition of binding of [3H]astemizole to HEK-293 cells expressing human recombinant hERG; settings: for inhibition at 10 µM: human, probe [3H]astemizole
hERG, sequence (Q12809 whole entry): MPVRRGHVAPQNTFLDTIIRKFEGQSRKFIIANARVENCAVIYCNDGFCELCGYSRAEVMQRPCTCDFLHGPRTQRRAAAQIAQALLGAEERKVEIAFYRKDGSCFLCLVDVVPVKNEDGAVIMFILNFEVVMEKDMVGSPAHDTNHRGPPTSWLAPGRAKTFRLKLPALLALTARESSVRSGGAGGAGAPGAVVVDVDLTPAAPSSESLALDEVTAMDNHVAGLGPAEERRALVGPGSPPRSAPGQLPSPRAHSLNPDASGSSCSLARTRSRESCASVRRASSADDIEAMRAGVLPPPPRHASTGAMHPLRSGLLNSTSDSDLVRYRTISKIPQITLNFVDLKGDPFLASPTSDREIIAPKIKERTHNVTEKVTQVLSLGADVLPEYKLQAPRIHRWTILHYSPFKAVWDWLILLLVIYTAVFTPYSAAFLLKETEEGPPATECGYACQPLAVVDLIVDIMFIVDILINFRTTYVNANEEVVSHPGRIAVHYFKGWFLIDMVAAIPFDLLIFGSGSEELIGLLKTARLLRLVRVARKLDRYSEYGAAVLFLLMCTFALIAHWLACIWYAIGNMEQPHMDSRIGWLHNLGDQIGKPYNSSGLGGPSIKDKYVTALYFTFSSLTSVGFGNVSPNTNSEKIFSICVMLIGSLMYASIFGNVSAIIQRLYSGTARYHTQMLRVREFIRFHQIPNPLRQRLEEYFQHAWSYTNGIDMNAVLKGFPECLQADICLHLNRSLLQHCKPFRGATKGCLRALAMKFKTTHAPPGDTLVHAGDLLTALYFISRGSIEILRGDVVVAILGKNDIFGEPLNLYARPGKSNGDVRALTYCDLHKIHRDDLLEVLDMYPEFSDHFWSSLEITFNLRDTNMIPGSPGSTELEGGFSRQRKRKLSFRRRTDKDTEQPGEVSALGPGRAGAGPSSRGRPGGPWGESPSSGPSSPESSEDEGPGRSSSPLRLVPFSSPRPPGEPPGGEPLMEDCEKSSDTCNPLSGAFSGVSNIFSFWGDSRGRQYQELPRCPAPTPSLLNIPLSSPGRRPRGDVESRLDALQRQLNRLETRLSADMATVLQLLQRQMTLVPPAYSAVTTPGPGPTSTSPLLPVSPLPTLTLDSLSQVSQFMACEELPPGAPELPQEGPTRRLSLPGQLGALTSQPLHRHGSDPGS

Row | SMILES | [3H]BTX-B binding % inhibition (@ 10 μM) (Sodium Channel, Site 2) [%] | IC50 (Sodium Channel, Site 2) [µM] | inhibition at 125 µM [1] [%] | IC50 (sodium channel) [µM] | IC50 (hERG) [µM] | inhibition at 10 µM (hERG) [%] | melting point [°C]
1 | Cc1ccc(S(=O)(=O)O)cc1.Nc1nnc(-c2cc(C(F)(F)F)ccc2C(F)(F)F)c(N)n1 [CEN-198, 3,5-Diamino-6-[2,5-bis(trifluoromethyl)phenyl]-1,2,4-triazine tosylate] | 23 | 34 |  |  |  |  | 
2 | N=c1nc(N)c(-c2cc(C(F)(F)F)cc(Cl)c2F)nn1CC(F)(F)C(F)(F)F.O=S(=O)(O)C(F)(F)F [CEN-211, 5(3)-Amino-6-(3-chloro-2-fluoro-5-trifluoromethyphenyl)-2,3(2,5)-dihydro-3(5)-imino-2-(2,2,3,3,3-pentafluoropropyl)-1,2,4-triazine trifluoromethanesulphonate] | 106 | < 0.5 |  |  |  |  | 
3 | Nc1nnc(C(c2ccc(Cl)cc2)c2ccc(Cl)cc2)c(N)n1 [CEN-213, 3,5-Diamino-6-[1,1 bis-(4-chlorophenyl)methyl]-1,2,4-triazine] | −2 | > 200 |  |  |  |  | 
4 | Cn1nc(-c2cc(F)c(F)cc2Cl)c(N)nc1=N [CEN-204, 5(3)-Amino-6-(2-chloro-4,5-difluoro-5-phenyl)-2,3(2,5)-dihydro-3(5)-imino-2-methyl-1,2,4-triazine mesylate] | 52 | 9 |  |  |  |  | 
5 | Nc1nnc(C2c3ccccc3Oc3ccccc32)c(N)n1 [CEN-182, 3,5-Diamino-6-(9-xanthyl)-1,2,4-triazine] |  |  | 6 | 214 | 90 | 10 | 159 to 161
6 | Cn1nc(-c2ccccc2Oc2ccccc2)c(N)nc1=N [CEN-105, 5(3)-Amino-6-(2-phenoxyphenyl)-2,3(2,5)-dihydro-3(5)-imino-2-methyl-1,2,4-triazine] |  |  | 86 | 100 | 19 | 35 | 164 to 166
7 | CCn1nc(-c2cccc3ccccc23)c(N)nc1=N [CEN-77, 5(3)-Amino-6-(1-naphthyl)-2,3(2,5)-dihydro-3(5)-imino-2-ethyl-1,2,4-triazine] |  |  | -1 | 14.5 | 18 | 36 | 191 to 193
8 | CC(C)C(c1ccccc1)c1nnc(N)nc1N (stereo not drawn) [CEN-201, 3,5-Diamino-6-(1-isopropyl-1-phenylmethy)-1,2,4-triazine] | 3 | > 200 |  |  |  |  | 
9 | Nc1nnc(-c2cccc3c2-c2ccccc2C3)c(N)n1 [CEN-129] |  |  | -3 | 190 | 133 | 7 | 240 to 242
10 | CCn1nc(-c2cc(F)c(F)cc2Cl)c(N)nc1=N.CS(=O)(=O)O [CEN-205, 5(3)-Amino-6-(2-chloro-4,5-difluoro-5-phenyl)-2,3(2,5)-dihydro-3(5)-imino-2-ethyl-1,2,4-triazine mesylate] | 79 | 3 |  |  |  |  | 
11 | Cn1nc(-c2cc(Cl)sc2Cl)c(N)nc1=N [CEN-80, 5(3)-Amino-6-[3-(2,5-dichlorothienyl)]-2,3(2,5)-dihydro-3(5)-imino-2-methyl-1,2,4-triazine] |  |  | -1 | 123 | 61 | 14 | 286 to 288
12 | CCn1nc(-c2cc(C(F)(F)F)cc(Cl)c2F)c(N)nc1=N [CEN-203, 5(3)-Amino-6-(3-chloro-2-fluoro-5-trifluoromethyphenyl)-2,3(2,5)-dihydro-3(5)-imino-2-ethyl-1,2,4-triazine mesylate] | 102 | < 0.5 |  |  |  |  | 
13 | COc1ccc(-c2nnc(N)nc2-c2ccc(OC)cc2)cc1 [CEN-127, 3-Amino-5,6-bis(4-methoxylphenyl)-1,2,4-triazine] |  |  | -24 | 85.1 | > 200 | 2 | 179 to 181
14 | Nc1nnc(-c2cccc(C(F)(F)F)c2Cl)c(N)n1 [CEN-199, 3,5-Diamino-6-(2-chloro-3-trifluoromethylphenyl)-1,2,4-triazine] | 29 | 25 |  |  |  |  | 
15 | CC(C)(Oc1ccc(Cl)cc1)c1nnc(N)nc1N [CEN-215, 3,5-Diamino-6-{1-(4-chlorophenoxy)-1-methyl}ethyl-1,2,4-triazine tosylate] | 22 | 35 |  |  |  |  | 
16 | Cc1ccc(S(=O)(=O)O)cc1.Nc1nnc(-c2c(F)c(F)c(F)c(F)c2F)c(N)n1 [CEN-212, 3,5-Diamino-6-(2,3,4,5,6-pentafluorophenyl)-1,2,4-triazine tosylate] | 0 | > 200 |  |  |  |  | 
17 | Cn1nc(-c2cccc(C(F)(F)F)c2Cl)c(N)nc1=N [CEN-177, 5(3)-Amino-6-(2-chloro-3-trifluoromethyphenyl)-2,3(2,5)-dihydro-3(5)-imino-2-methyl-1,2,4-triazine] |  |  | 16 | 14 | 35 | 22 | 205 to 207
18 | N=c1nc(N)c(-c2cc(C(F)(F)F)cc(Cl)c2F)nn1CC(F)(F)C(F)F.O=S(=O)(O)C(F)(F)F [CEN-210, 5(3)-Amino-6-(3-chloro-2-fluoro-5-trifluoromethyphenyl)-2,3(2,5)-dihydro-3(5)-imino-2-(2,2,3,3-tetrafluoropropyl)-1,2,4-triazine trifluoromethanesulphonate] | 43 | 13 |  |  |  |  | 
19 | Cn1nc(-c2cc(C(F)(F)F)cc(Cl)c2F)c(N)nc1=N [CEN-202, 5(3)-Amino-6-(3-chloro-2-fluoro-5-trifluoromethyphenyl)-2,3(2,5)-dihydro-3(5)-imino-2-methyl-1,2,4-triazine mesylate] | 90 | 1 |  |  |  |  | 
20 | Cc1ccc(S(=O)(=O)O)cc1.Nc1nnc(-c2c(Cl)ccc(Cl)c2Cl)c(N)n1 [CEN-214, 3,5-Diamino-6-(2,3,6-trichlorophenyl)-1,2,4-triazine tosylate] | 10 | 90 |  |  |  |  | 
21 | Nc1ncc(-c2cccc(Cl)c2Cl)c(N)n1 [CEN-41, 2,4-Diamino-5-(2,3-dichlorophenyl)pyrimidine] |  |  | 76 | 60.3 | > 200 | -3 | 289 to 291
22 | Cn1nc(-c2ccc3c(c2)OC(F)(F)O3)c(N)nc1=N [CEN-81, 5(3)-Amino-6-[5-(2,2-difluorobenzodioxolo)]-dihydro-3(5)-imino-2-methyl-1,2,4-triazine] |  |  | -2 | 251 | 49 | 17 | 297 to 298
23 | Nc1nnc(-c2ccc(Oc3ccccc3)cc2)c(N)n1 [CEN-93, 3,5-Diamino-6-(4-phenoxphenyl)-1,2,4-triazine] |  |  | 4 | 63.1 | 19 | 35 | 266 to 267
24 | Cn1nc(-c2cccc3ccccc23)c(N)nc1=N [CEN-78, 5(3)-Amino-6-(1-naphthyl)-2,3(2,5)-dihydro-3(5)-imino-2-methyl-1,2,4-triazine] |  |  | 9 | 102 | 32 | 24 | 248 to 250
